This is an account of results in patent US12116574B2, “Anti-inflammatory treatment via inhibition of endothelial cell kinesin light chain 1, variant 1 (KLC1C)” (Northwestern University, priority 2016, dated 2024).

“Also recorded” adds a separate entry of the source.

What all share (type): cell-based, human
Data set [1] concerns lateral border recycling compartment (LBRC) in HUVEC. Nature of the data set: Targeted Recycling assay (LBRC recruitment to transmigrating leukocytes). To be noted: transduced HUVEC, 8.5 minutes. As to the method:
The Targeted Recycling assay determines whether the LBRC has been recruited to transmigrating leukocytes. Targeted recycling was performed as described previously (ref 5; herein incorporated by reference in its entirety). HUVEC monolayers are incubated with an Fab fragment of P1.1 mAb for 1 h at 37° C. in a CO2 incubator. […] HUVEC are then put on ice and washed with PBS to remove any free unbound Fab, followed by an incubation with an excess of F(ab′)2 fragment of unlabeled goat anti-mouse IgG on ice for 1 h. This saturably binds all of the Fab that is present on the surface of the endothelial junction, but will not enter the LBRC at this temperature. Free antibody is washed away and 2×10^6 PBMCs mixed with Alexa-568-conjugated F(ab′)2 fragment of the same goat […] transmigration to begin. Cells are then put on ice and washed with ice-cold PBS, followed by fixation in 2% paraformaldehyde for 10 min at room temperature.
In this procedure, only PECAM that was originally in the LBRC and recycled to the surface during the transmigration period will be labeled with the fluorescent secondary antibody, since it was protected from the unlabeled secondary antibody during the incubation on ice. The synchronized transmigration for a short time (8 minutes) catches leukocytes early in the act of transmigration before significant constitutive recycling and a corresponding increase in the staining of uninvolved junction occurs.
Confocal fluorescence microscopy is used to image the targeted recycling events. Leukocytes are identified with fluorescently conjugated mAb against CD18 (IB4). […] The number of monocytes in contact with the endothelial monolayer at cell junctions was assessed, and of those, it was determined how many are contacted by membrane from the LBRC. The intensity of fluorescent Goat-anti-mouse mAb was measured to quantify enrichment of recycling LBRC around transmigrating leukocytes. One-pixel-wide lines are drawn along the area surrounding the site of diapedesis. The mean fluorescence intensity in contact with the leukocyte is divided by the average intensity of constitutively recycled PECAM at the adjacent cell border to calculate LBRC enrichment around transmigrating leukocytes. Multiple monolayers were examined until at least one hundred transmigration events are observed for each variable tested. To avoid unintentional bias each leukocyte in contact with the endothelial border is scored, whether or not it has initiated TEM. […] Image processing and quantification of data are performed using Volocity and ImageJ (NIH) image processing software.

The test system of another data set is HUVEC. Briefly: Standard one hour Transendothelial Migration (TEM) assay on transduced HUVEC. As to the method:
(§1) 293A cells were grown on 100 mm dishes to 70-90% confluency and then transfected with adenoviral constructs using Lipofectamine 2000 for delivery. Amplified virus that expressed KHC and KLC knockdown and rescue constructs was purified and used to in transduction of HUVEC for knockdown and rescue experiments (VIRAPOWER Adenoviral Expression System).
The TEM assay is a quantitative assay designed to assess, using large numbers of transmigration events (more than 300 per variable tested), the effect of various treatments such as knocking down Kinesin-1, on the process of transmigration. As routinely performed in our lab (refs. 19,21; herein incorporated by reference in their entireties), peripheral blood mononuclear cells (PBMC, to assess monocyte transmigration) from healthy volunteers are purified on a Ficoll density gradient and then washed in Hanks' buffered saline solution (HBSS) plus 0.1% human serum albumin. Following this wash, they are resuspended in Medium 199 plus 0.1% human serum albumin. 2×10^6 cells are added to confluent TNF-α activated (10 ng/mL, >4 hrs) human umbilical vein endothelial cell (HUVEC) monolayers grown on hydrated collagen gels and incubated for 1 h at 37° C. in a CO2 incubator (ref. 22; herein incorporated by reference in its entirety). This is enough time to allow maximum TEM of control cells (˜90%).
To assess the role of microtubule motors in leukocyte TEM, control and experimentally treated HUVEC are compared side by side in this assay. The co-culture is washed with cold PBS and fixed overnight with 2.5% glutaraldehyde in 0.1 M sodium cacodylate buffer, pH 7.4. TEM is quantitated by Nomarski optics (ref. 21; herein incorporated by reference in its entirety). […] Monocytes are scored in each of several random fields for each monolayer until at least 100 are counted, with 3 replicate monolayers for each condition for a total of over 300 cells per variable tested. To avoid unintentional bias, all cells in the field are counted. Data are expressed as the percent of total leukocytes (attached plus transmigrated) that have transmigrated.

The next data set concerns Kinesin-1. Nature of the data set: Western Blot of Kinesin-1 in virally-transduced HUVEC. To be noted: Kinesin-1 shRNA plus mCherry-tagged rescue construct. As to the method:
as §1
HUVEC were harvested for SDS-PAGE by washing with PBS and adding sample buffer. DNA was sheared by passing through a 27 G needle 10 times and samples were heated to 100° C. for 5 minutes. Samples were separated on 8% polyacrylamide gels and transferred onto polyvinyldifluoride membranes before blocking with 5% milk in PBS with 0.05% Tween and probing with primary antibodies. Blots were incubated with horseradish peroxidase-conjugated secondary antibodies in 5% milk in PBS with 0.05% Tween, then washed, and detected using chemiluminescence and exposure to X-ray film.
(A western blot detects proteins with antibodies after separation by electrophoresis.)

Take “KLC1 variant 1 shRNA: shRNA targeting 3′ noncoding region of KLC1 isoform variant 1 (NM_005552.4); 5′-TGTATTTGTGTCTTTCTAA-3′ (SEQ ID NO: 11) (the letters are possibly those of the target site)”: in data set [1], the “LBRC enrichment around monocytes at endothelial junctions” value is listed as “significantly diminished” and the “targeted recycling of the LBRC” value is on record as “significantly diminished”. Also, the “targeted recycling of the LBRC” value in data set [1] (listed as KLC1 Variant 1 shRNA) was “significantly decreased”. Besides, in the data set on HUVEC, the “transmigration (TEM) of monocytes” value was “reduced; also recorded: blocks”.
Take “KLC1 variants 2 & 3 shRNA: shRNA targeting KLC1 isoform variants 2 (NM_182923.3) and 3 (NM_001130107.1); 5′-GCATAGGACATGATACTAA-3′ (SEQ ID NO: 12) (the letters are possibly those of the target site)”: the “transmigration (TEM) of monocytes” value in the data set with HUVEC is reported as “not”.
Take “Kinesin-1 rescue construct: KHC rescue construct with silent point mutations in the targeted sequences and in-frame mCherry tag at the 3′ end”: the “targeted recycling of the LBRC” value in data set [1] is “restored targeted recycling to control levels”. In addition, in the data set with HUVEC, the “transmigration (TEM) of monocytes” value is reported as “rescued”. Also, in the data set with Kinesin-1, the “Kinesin-1 expression after rescue of knockdown” value is on record as “rescued”.
